The target in this assay is T1, human TLR8 (Homo sapiens, UniProt Q9NR97).
T1 construct: host or cells: HEK293 (HEK-Blue hTLR8)
T1 sequence (Q9NR97 27-1041): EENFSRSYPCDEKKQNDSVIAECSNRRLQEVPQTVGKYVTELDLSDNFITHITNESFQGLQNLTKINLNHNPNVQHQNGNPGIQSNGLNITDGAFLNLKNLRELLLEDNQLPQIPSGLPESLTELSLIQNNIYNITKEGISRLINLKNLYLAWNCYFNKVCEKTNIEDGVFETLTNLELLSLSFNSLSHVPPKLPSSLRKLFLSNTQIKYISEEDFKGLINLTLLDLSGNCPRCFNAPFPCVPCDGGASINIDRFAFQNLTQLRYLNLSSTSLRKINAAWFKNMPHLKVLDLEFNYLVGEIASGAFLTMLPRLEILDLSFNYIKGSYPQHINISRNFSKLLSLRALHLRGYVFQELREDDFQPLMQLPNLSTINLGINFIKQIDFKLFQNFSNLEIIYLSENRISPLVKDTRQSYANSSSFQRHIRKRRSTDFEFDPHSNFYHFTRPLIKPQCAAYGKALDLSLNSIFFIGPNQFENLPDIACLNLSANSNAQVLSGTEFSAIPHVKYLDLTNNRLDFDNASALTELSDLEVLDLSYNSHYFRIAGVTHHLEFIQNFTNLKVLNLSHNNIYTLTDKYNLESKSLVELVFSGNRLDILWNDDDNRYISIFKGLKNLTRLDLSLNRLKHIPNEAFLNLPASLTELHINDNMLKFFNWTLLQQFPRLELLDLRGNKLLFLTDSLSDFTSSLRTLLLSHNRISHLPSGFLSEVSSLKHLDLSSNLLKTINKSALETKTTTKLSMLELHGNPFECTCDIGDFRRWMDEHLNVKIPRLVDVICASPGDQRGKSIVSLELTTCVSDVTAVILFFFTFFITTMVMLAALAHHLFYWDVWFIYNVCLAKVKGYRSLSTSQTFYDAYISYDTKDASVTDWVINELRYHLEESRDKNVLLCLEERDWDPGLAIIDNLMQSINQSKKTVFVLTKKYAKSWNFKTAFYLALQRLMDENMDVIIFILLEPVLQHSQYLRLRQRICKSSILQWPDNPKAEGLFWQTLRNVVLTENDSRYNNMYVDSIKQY
Briefly: HEK293-Blue-hTLR-8 cells assay (SEAP reporter, R848 stimulation). It is filed as cell-based. The conditions noted are these: HEK293-Blue-hTLR8 cells, R848 ligand, 20 hrs incubation; read-out: HEK/hTLR8 IC50. From the text: HEK293-Blue-hTLR-8 Cells Assay:
A stable HEK293-Blue-hTLR-8 cell line was purchased from InvivoGen (Cat. #: hkb-htlr8, San Diego, Calif., USA). These cells were originally designed for studying the stimulation of human TLR8 by monitoring the activation of NF-κB. A SEAP (secreted embryonic alkaline phosphatase) reporter gene was placed under the control of the IFN-β minimal promoter fused to five NF-κB and AP-1-binding sites. The SEAP was induced by activating NF-κB and AP-1 via stimulating HEK-Blue hTLR8 cells with TLR8 ligands. Therefore the reporter expression was declined by TLR8 antagonist under the stimulation of a ligand, such as R848, for incubation of 20 hrs. The cell culture supernatant SEAP reporter activity was determined using QUANTI-Blue™ kit (Cat. #: rep-qb1, Invivogen, San Diego, Ca, USA) at a wavelength of 640 nm, a detection medium that turns purple or blue in the presence of alkaline phosphatase.
HEK293-Blue-hTLR8 cells were incubated at a density of 250,000-450,000 cells/mL in a volume of 170 μL in a 96-well plate in Dulbecco's Modified Eagle's medium (DMEM) containing 4.5 g/L glucose, 50 U/mL penicillin, […], […], 2 mM L-glutamine, 10% (v/v) heat-inactivated fetal bovine serum with addition of 20 μL test compound in a serial dilution in the presence of final DMSO at 1% and 10 μL of 60 uM R848 in above DMEM, perform incubation under 37° C. in a CO2 incubator for 20 hrs. Then 20 μL of the supernatant from each well was incubated with 180 μL Quanti-blue substrate solution at 37° C. for 2 hrs and the absorbance was read at 620-655 nm using a spectrophotometer. The signaling pathway that TLR8 activation leads to downstream NF-κB activation has been widely accepted, and therefore similar reporter assay was modified for evaluating TLR8 antagonist.
Turning to `C[C@@H]1CN(c2cc(=O)n(C)c3ncccc23)C[C@@H]2c3ccc(N4C[C@@H]5C[C@H]4CN5)cc3CN12` [Example 19, 4-[(4R,10bS)-8-[(1S,4S)-2,5-diazabicyclo[2.2.1]heptan-2-yl]-4-methyl-3,4,6,10b-tetrahydro-1H-pyrazino[2,1-a]isoindol-2-yl]-1-methyl-1,8-naphthyridin-2-one], the IC50 was determined as 11.3 nM. To `C[C@@H]1CN(c2cc(=O)n(C)c3ncccc23)C[C@@H]2c3ccc(N4C[C@H]5C[C@@H]4CN5)cc3CN12` [Example 20, 4-[(4R,10bS)-8-[(1R,4R)-2,5-diazabicyclo[2.2.1]heptan-2-yl]-4-methyl-3,4,6,10b-tetrahydro-1H-pyrazino[2,1-a]isoindol-2-yl]-1-methyl-1,8-naphthyridin-2-one] belongs 4.5 nM; to `C[C@@H]1CN(c2cc(=O)n(C)c3ncccc23)C[C@@H]2c3ccc(N4CC5CCC(C4)N5)cc3CN12` [Example 21, 4-[(4R,10bS)-8-(3,8-diazabicyclo[3.2.1]octan-3-yl)-4-methyl-3,4,6,10b-tetrahydro-1H-pyrazino[2,1-a]isoindol-2-yl]-1-methyl-1,8-naphthyridin-2-one], 1.8 nM.

In the case of `C[C@@H]1CN(c2cc(=O)n(C)c3ncccc23)C[C@@H]2c3ccc(N4CCOC[C@H](N)C4)cc3CN12` [Example 22, 4-[(4R,10bS)-8-[(6R)-6-amino-1,4-oxazepan-4-yl]-4-methyl-3,4,6,10b-tetrahydro-1H-pyrazino[2,1-a]isoindol-2-yl]-1-methyl-1,8-naphthyridin-2-one], the IC50 is 4.9 nM. With `C[C@@H]1CN(c2cc(=O)n(C)c3ncccc23)C[C@@H]2c3ccc(OCCN(C)C)cc3CN12` [Example 23, 4-[(4R,10bS)-8-[2-(dimethylamino)ethoxy]-4-methyl-3,4,6,10b-tetrahydro-1H-pyrazino[2,1-a]isoindol-2-yl]-1-methyl-1,8-naphthyridin-2-one] the figure was 1 nM; with `C[C@@H]1CN(c2cc(=O)n(C)c3ncccc23)C[C@@H]2c3ccc(C4CCNCC4)cc3CN12` [Example 24, 4-[(4R,10bS)-4-methyl-8-(4-piperidyl)-3,4,6,10b-tetrahydro-1H-pyrazino[2,1-a]isoindol-2-yl]-1-methyl-1,8-naphthyridin-2-one], 1.4 nM; with `C[C@@H]1CN(c2cc(=O)n(C)c3ncccc23)C[C@@H]2c3ccc(C4CCCNC4)cc3CN12` (stereo partly drawn) [Example 25, 4-[(4R,10bS)-4-methyl-8-(3-piperidyl)-3,4,6,10b-tetrahydro-1H-pyrazino[2,1-a]isoindol-2-yl]-1-methyl-1,8-naphthyridin-2-one], 2.6 nM. With `C[C@@H]1CN(c2cc(=O)n(C)c3ncccc23)C[C@@H]2c3ccc(C4CCNC4)cc3CN12` (stereo partly drawn) [Example 26, 4-[(4R,10bS)-4-methyl-8-pyrrolidin-3-yl-3,4,6,10b-tetrahydro-1H-pyrazino[2,1-a]isoindol-2-yl]-1-methyl-1,8-naphthyridin-2-one] the figure was 6.5 nM; with `C[C@@H]1CN(c2cc(=O)n(C)c3ncccc23)C[C@@H]2c3ccc([C@H]4CC[C@H](N5CCOCC5)CC4)cc3CN12` [Example 27A, 4-[(4R,10bS)-4-methyl-8-(trans-4-morpholinocyclohexyl)-3,4,6,10b-tetrahydro-1H-pyrazino[2,1-a]isoindol-2-yl]-1-methyl-1,8-naphthyridin-2-one], 2 nM; with `C[C@@H]1CN(c2cc(=O)n(C)c3ncccc23)C[C@@H]2c3ccc([C@H]4CC[C@@H](N5CCOCC5)CC4)cc3CN12` [Example 27B, 4-[(4R,10bS)-4-methyl-8-(cis-4-morpholinocyclohexyl)-3,4,6,10b-tetrahydro-1H-pyrazino[2,1-a]isoindol-2-yl]-1-methyl-1,8-naphthyridin-2-one], 10 nM.

As for `C[C@@H]1CN(c2cc(=O)n(C)c3ncccc23)C[C@@H]2c3ccc([C@H]4C[C@H]5COC[C@@H](C4)N5)cc3CN12` [Example 28A, 4-[(4R,10bS)-4-methyl-8-(endo-3-oxa-9-azabicyclo[3.3.1]nonan-7-yl)-3,4,6,10b-tetrahydro-1H-pyrazino[2,1-a]isoindol-2-yl]-1-methyl-1,8-naphthyridin-2-one], the IC50 is 1.7 nM. To `C[C@@H]1CN(c2cc(=O)n(C)c3ncccc23)C[C@@H]2c3ccc([C@@H]4C[C@H]5COC[C@@H](C4)N5)cc3CN12` [Example 28B, 4-[(4R,10bS)-4-methyl-8-(exo-3-oxa-9-azabicyclo[3.3.1]nonan-7-yl)-3,4,6,10b-tetrahydro-1H-pyrazino[2,1-a]isoindol-2-yl]-1-methyl-1,8-naphthyridin-2-one] belongs 4.4 nM. With `CCn1c(=O)cc(N2C[C@@H](C)N3Cc4cc(N5C[C@@H](N)[C@H](OC)C5)ccc4[C@H]3C2)c2cccnc21` [Example 29, 4-[(4R,10bS)-8-[(3R,4R)-3-amino-4-methoxy-pyrrolidin-1-yl]-4-methyl-3,4,6,10b-tetrahydro-1H-pyrazino[2,1-a]isoindol-2-yl]-1-ethyl-1,8-naphthyridin-2-one] the figure was 26.3 nM.

(Values after US20230041743A1, “1,8-NAPHTHYRIDIN-2-ONE COMPOUNDS FOR THE TREATMENT OF AUTOIMMUNE DISEASE” (Hoffmann-La Roche Inc., priority 2019, published 2023).)
